According to article PMC1968247 (British Journal of Cancer, 1993):
Where “and” joins values, the source holds several entries; their conditions need not be identical. Equal entries are not always repeated. Where two headings read alike, the source gives them in different places.

Columns and labels:
MAC 26 tumours = details: for Tumour growth delay: MAC 26; for Survivors: MAC 26 bearers
Protocol: (§1) Br. J. Cancer (1993), 67, 441 446 t? […] Bibby Clinical Oncology Unit, University of Bradford, West Yorkshire, BD7 JDP, UK. […] In vivo anti-tumour activity was examined against three transplantable adenocarcinomas of the mouse colon and in vivo bone marrow toxicity was assessed using a spleen colony forming unit assay. The pharmacokinetic behaviour of the drug in vivo and drug stability in vitro was analysed by gas chromatography with electron capture detection. […] Clinical responses to cytotoxic agents have been largely restricted to the haematological malignancies while the majority of human solid tumours have remained refractory to chemotherapy (Marsoni et al., 1987). […] However, their clinical usefulness has been limited by non-selective host toxicity, particularly myelosuppres- sion. The chloroethylnitrosoureas decompose spontaneously in aqueous solution to generate reactive intermediates that are capable of alkylating and carbamoylating nucleophilic targets (Cheng et al., 1972). Alkylation reactions consist of chloroethylations and hydroxyethylations of DNA (Tong et al., 1982). Chloroethylation of 06-guanine with subsequent cross-link formation is considered to be the most important cytotoxic reaction (Lown et al., 1978) while hydroxyethyla- tion reactions are thought to be responsible for their mutagenic and carcinogenic effects (Pelfrene et al., 1976; Swenson et al., 1979). […] In the search for other types of compound that would chloroethylate DNA, a series of 2-haloethylsulphonates was synthesised (Shealy et al., 1983). […] Recently, the NCI has introduced a new disease-orientated screening programme based on the assessment of the in vitro cytotoxicity of a panel of cell lines representing the common clinical forms of human cancers using a colorimetric assay (Boyd, 1989). […] One reason for this discrepancy is that the in vitro tests ignore the potential role played by the pharmacokinetic behaviour and bioavailability of a drug in determining tumour responses in vivo. […] It has been used extensively as part of the pre-clinical evaluation of new anti-cancer agents within the Screening and Pharmacology Group of the EORTC (Bibby et al., 1988b). The feasibility of performing minimal toxicity studies in conjunction with anti-tumour studies has been described (Bibby et al., 1988b). […] Correspondence: A.M. Matthew. Received 6 December 1991; and in revised form 13 October 1992. Br. J. Cancer (1993), 67, 441-446 '?" Macmillan Press Ltd., 1993 442 A.M. MATIHEW et al. ethylating agents with improved therapeutic indices. The assessment of stem cell survival has been recommended to study irreversible cytotoxic bone marrow injury (Schofield, 1986) and this can be performed readily in mice using a spleen colony forming unit assay. […] In vitro activity was assessed against a panel of established murine and human tumour cell lines while in vivo anti-tumour responses were evaluated against an ascitic tumour, MAC 15A, and two solid subcutaneous (sc) tumours, MAC 13 and MAC 26. MAC 13 is relatively nitrosourea-sensitive due to a low level of the repair enzyme 06-alkylguanine-DNA alkyltransferase while MAC 26 is relatively nitrosourea-resistant due to a high repair enzyme level (Lunn et al., 1989). In vivo bone marrow toxicity and pharmacokinetic studies and in vitro drug stability studies were performed in conjunction with the anti-tumour studies. […] Chlorozotocin was dissolved in 10% dimethylsulphoxide (DMSO)/arachis oil. Drug solutions were prepared at an appropriate concentration for the desired in vivo dose to be administered in 0.1 ml per 10 g body weight by intra- peritoneal (ip) or intravenous (iv) injection and for the desired final concentration in vitro to be achieved upon a 1 in 10 dilution. […] Chemosensitivity testing In vitro chemosensitivity was assessed using a modified micro-tetrazolium (MTT) assay (Twenty- man & Luscombe, 1987).

MAC 15A ascites tumour = assay: Anti-tumour activity against MAC 15A (median survival time); type: in vivo, NMRI mice
Protocol: as §1

[1] = In vitro stability in complete RPMI 1640 tissue culture medium; type: in vitro ADME; details: complete RPMI 1640 medium, 37 C, initial 10 ug/ml
Protocol: Br. J. Cancer (1993), 67, 441 446 t? […] Bibby Clinical Oncology Unit, University of Bradford, West Yorkshire, BD7 JDP, UK. […] In vivo anti-tumour activity was examined against three transplantable adenocarcinomas of the mouse colon and in vivo bone marrow toxicity was assessed using a spleen colony forming unit assay. The pharmacokinetic behaviour of the drug in vivo and drug stability in vitro was analysed by gas chromatography with electron capture detection. […] Clinical responses to cytotoxic agents have been largely restricted to the haematological malignancies while the majority of human solid tumours have remained refractory to chemotherapy (Marsoni et al., 1987). […] However, their clinical usefulness has been limited by non-selective host toxicity, particularly myelosuppres- sion. […] The assessment of stem cell survival has been recommended to study irreversible cytotoxic bone marrow injury (Schofield, 1986) and this can be performed readily in mice using a spleen colony forming unit assay. […] In vitro activity was assessed against a panel of established murine and human tumour cell lines while in vivo anti-tumour responses were evaluated against an ascitic tumour, MAC 15A, and two solid subcutaneous (sc) tumours, MAC 13 and MAC 26. […] Chemosensitivity testing In vitro chemosensitivity was assessed using a modified micro-tetrazolium (MTT) assay (Twenty- man & Luscombe, 1987).

HCT-18 = assay: In vitro chemosensitivity, MTT assay; type: cell-based, human
Protocol: as §1

HCLO = assay: In vitro chemosensitivity, MTT assay; type: cell-based, human; details: area under decay curve of the IC50 over the MTT assay
Protocol: as §1

K562 = assay: In vitro chemosensitivity, MTT assay; type: cell-based, human; details: area under decay curve of the IC50 over the MTT assay
Protocol: as §1

HT-29 = assay: In vitro chemosensitivity, MTT assay; type: cell-based, human
Protocol: as §1

HRT-18 = assay: In vitro chemosensitivity, MTT assay; type: cell-based, human
Protocol: as §1

DLD-1 = assay: In vitro chemosensitivity, MTT assay; type: cell-based, human
Protocol: as §1

[2] = area under decay curve of the IC50 over the MTT assay

With CS(=O)(=O)CS(=O)(=O)OCCCl [Clomesone, 2-chloroethyl(methylsulphonyl)methanesulphonate] the Tumour growth delay (MAC 26 tumours; 50 mg kg-1 ip) was 0.8 days, the Tumour growth delay (MAC 26 tumours; 100 mg kg-1 ip) was 0.8 days and the Survivors (MAC 26 tumours; 25 mg kg-1 ip) was 10/10. For the same compound, the Survivors (MAC 26 tumours; 50 mg kg-1 ip) was 10/10, the Survivors (MAC 26 tumours; 100 mg kg-1 ip) was 10/10 and the Survivors (MAC 26 tumours; 150 mg kg-1 ip) was 0/10. The Survivors (MAC 26 tumours; 200 mg kg-1 ip) was 0/10, the T/C% (MAC 15A ascites tumour; 12.5 mg kg-1 ip) was 88% and the T/C% (MAC 15A ascites tumour; 12.5 mg kg-1 iv) was 100%. The T/C% (MAC 15A ascites tumour; 25 mg kg-1 ip) was 138%, the T/C% (MAC 15A ascites tumour; 25 mg kg-1 iv) was 100% and the T/C% (MAC 15A ascites tumour; 50 mg kg-1 ip) was 163%. The T/C% (MAC 15A ascites tumour; 50 mg kg-1 iv) was 125%, the T/C% (MAC 15A ascites tumour; 100 mg kg-1 ip, median survival time treated/control) was 133% and 163% and the “1st order rate constant (k) of degradation” value [1] was 0.205. For the same compound, the “t1/2 in tissue culture medium” value [1] was 3.38 h, the IC50 (HCT-18; MTT, 4 days, n = 4) was over 100 igm9l-' and the “c x t (concentration-time product)” value (HCT-18; [2]) was over 528 fig h ml- '. For the same compound, the “c x t (concentration-time product)” value (HCLO) was 146 fig h ml- ', the “c x t (concentration-time product)” value (K562) was 207 fig h ml- ' and the IC50 (HT-29; MTT, 4 days, n = 4) was over 100 igm9l-'. The “c x t (concentration-time product)” value (HT-29; [2]) was over 528 fig h ml- ', the IC50 (HRT-18; MTT, 4 days, n = 4) was over 100 igm9l-' and the “c x t (concentration-time product)” value (HRT-18; [2]) was over 528 fig h ml- '. For the same compound, the IC50 (DLD-1; MTT, 4 days, n = 4) was over 100 igm9l-' and the “c x t (concentration-time product)” value (DLD-1; [2]) was over 528 fig h ml- '.
